This experiment deals with T1, human kinase Mps-1 (Homo sapiens, UniProt P33981).
T1 construct: N-terminally GST-tagged human full length recombinant Mps-1 kinase; purchased Invitrogen, Karslruhe, Germany PV4071
T1 sequence (P33981 1-857): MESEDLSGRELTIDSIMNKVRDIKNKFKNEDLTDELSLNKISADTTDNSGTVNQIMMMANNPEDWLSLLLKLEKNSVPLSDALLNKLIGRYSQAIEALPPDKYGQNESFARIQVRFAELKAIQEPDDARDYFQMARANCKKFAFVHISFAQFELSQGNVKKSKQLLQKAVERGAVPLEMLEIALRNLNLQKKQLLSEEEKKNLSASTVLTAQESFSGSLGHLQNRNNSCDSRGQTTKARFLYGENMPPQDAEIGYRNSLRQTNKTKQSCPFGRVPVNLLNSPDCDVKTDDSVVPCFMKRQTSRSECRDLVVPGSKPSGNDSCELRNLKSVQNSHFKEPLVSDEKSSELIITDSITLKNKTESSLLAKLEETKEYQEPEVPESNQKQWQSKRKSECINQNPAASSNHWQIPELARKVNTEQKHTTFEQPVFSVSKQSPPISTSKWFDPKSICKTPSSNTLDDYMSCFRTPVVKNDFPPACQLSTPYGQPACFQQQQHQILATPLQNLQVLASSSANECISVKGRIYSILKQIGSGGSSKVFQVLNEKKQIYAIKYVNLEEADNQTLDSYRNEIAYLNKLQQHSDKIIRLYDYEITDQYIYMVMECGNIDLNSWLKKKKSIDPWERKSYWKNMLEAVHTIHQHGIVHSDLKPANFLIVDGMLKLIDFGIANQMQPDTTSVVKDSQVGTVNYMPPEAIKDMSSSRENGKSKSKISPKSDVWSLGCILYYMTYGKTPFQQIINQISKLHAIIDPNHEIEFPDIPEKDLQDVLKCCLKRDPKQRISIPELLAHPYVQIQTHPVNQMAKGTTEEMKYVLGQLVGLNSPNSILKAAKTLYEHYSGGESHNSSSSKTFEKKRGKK
The experiment is described as follows: Mps-1 kinase assay (HTRF). It is filed as biochemical. The settings on record: lowATP; mean; read-out: Mps1 lowATP mean IC50. The method, boiled down:
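HTRF readout: EDTA-stopped reactions incubated 1 h with europium anti-phospho(Ser/Thr) antibody and streptavidin-XLent, emission ratio 665/620 nm after 350 nm excitation. Kinase step: compound pre-bound 15 min to ~1 nM GST-Mps-1, then 60 min at 22 °C with ATP and biotin-peptide substrate; inhibition scaled between no-inhibitor (0%) and no-enzyme (100%) controls.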
On the technique in general: In TR-FRET formats the signal depends on donor and acceptor labels being close together.
Broadly, the IC50 is the concentration that inhibits the measured activity by half. Consider `O=C(NC1CC1)c1ccc(-c2cnc3c(NC[C@@H](O)CO)nc4ccc(F)cc4n23)cc1Cl` (stereo in doubt) [Example 2-87, 2-chloro-N-cyclopropyl-4-{4-[(2,3-dihydroxypropyl)amino]-8-fluoroimidazo[1,2-a]quinoxalin-1-yl}benzamide], for which the IC50 worked out at 12.2 µM.
With `CCCNc1nc2cc(F)c(F)cc2n2c(-c3ccc(C(=O)NC4CC4)cc3)cnc12` [Example 2-88, N-cyclopropyl-4-[7,8-difluoro-4-(propylamino)imidazo[1,2-a]quinoxalin-1-yl]benzamide], the IC50 came to 0.0286 µM.
Turning to `Cn1cc(CNc2nc3cc(F)c(F)cc3n3c(-c4ccc(C(=O)NC5CC5)cc4)cnc23)cn1` [Example 2-111, N-cyclopropyl-4-(7,8-difluoro-4-{[(1-methyl-1H-pyrazol-4-yl)methyl]amino}imidazo[1,2-a]quinoxalin-1-yl)benzamide], the IC50 worked out at 0.0796 µM.
Turning to `CC(C)CNc1nc2ccccc2n2c(-c3ccc4cn[nH]c4c3)cnc12` [Example 1-49, 1-(1H-indazol-6-yl)-N-(2-methylpropyl)imidazo[1,2-a]quinoxalin-4-amine], the IC50 was 6.46 µM.
As for `CC(C)CNc1nc2ccccc2n2c(-c3ccc(C(=O)NC4(CO)CC4)cc3)cnc12` [Example 3-30, N-[1-(hydroxymethyl)cyclopropyl]-4-{4-[(2-methylpropyl)amino]imidazo[1,2-a]quinoxalin-1-yl}benzamide], the IC50 is 0.275 µM.
In the case of `CC(C)CNc1nc2cc(C#N)ccc2n2c(-c3ccc(C(=O)NC4CC4)c(Cl)c3)cnc12` [Example 2-247, 2-chloro-4-{7-cyano-4-[(2-methylpropyl)amino]imidazo[1,2-a]quinoxalin-1-yl}-N-cyclopropylbenzamide] it was 0.339 µM; in that of `O=C(NC1CC1)c1ccc(-c2cnc3c(NCc4cccc(F)c4)nc4ccccc4n23)cc1` [Example 2-5, N-cyclopropyl-4-{4-[(3-fluorobenzyl)amino]imidazo[1,2-a]quinoxalin-1-yl}benzamide], 0.09 µM; in that of `O=C(NC1CC1)c1ccc(-c2cnc3c(NCCO)nc4ccc(F)cc4n23)cc1` [Example 2-41, N-cyclopropyl-4-{8-fluoro-4-[(2-hydroxyethyl)amino]imidazo[1,2-a]quinoxalin-1-yl}benzamide], 0.212 µM.
Consider `O=C(NC1CC1)c1ccc(-c2cnc3c(NCc4ccccc4F)nc4ccccc4n23)cc1` [Example 2-14, N-cyclopropyl-4-{4-[(2-fluorobenzyl)amino]imidazo[1,2-a]quinoxalin-1-yl}benzamide], for which the IC50 turned out to be 0.0721 µM.
As for `Cc1cc2nc(NCCCCO)c3ncc(-c4ccc(C(=O)NC5CC5)cc4)n3c2cc1C` [Example 2-146, N-cyclopropyl-4-{4-[(4-hydroxybutyl)amino]-7,8-dimethylimidazo[1,2-a]quinoxalin-1-yl}benzamide], the figure is 0.00283 µM.
For the compound `CC(C)CNc1nc2ccccc2n2c(-c3ccc(C(=O)Nc4cccc(C(N)=O)c4)cc3)cnc12` [Example 3-10, N-(3-carbamoylphenyl)-4-{4-[(2-methylpropyl)amino]imidazo[1,2-a]quinoxalin-1-yl}benzamide], the IC50 worked out at 0.865 µM.
For the compound `CNC(=O)Nc1ccc(-c2cnc3c(NCCOC)nc4cc(C)c(C)cc4n23)cc1` [Example 2-162, 1-(4-{4-[(2-methoxyethyl)amino]-7,8-dimethylimidazo[1,2-a]quinoxalin-1-yl}phenyl)-3-methylurea], the IC50 was 0.417 µM.
Take `CC(C)CNc1nc2ccccc2n2c(-c3ccc(C(=O)NCCO)cc3)cnc12` [Example 3-4, N-(2-hydroxyethyl)-4-{4-[(2-methylpropyl)amino]imidazo[1,2-a]quinoxalin-1-yl}benzamide]: the half-maximal inhibitory concentration (IC50) was determined as 1.79 µM.
As for `Cc1cc2nc(NCC3CC3)c3ncc(-c4ccc(C(=O)NC5CC5)cc4)n3c2cc1C` [Example 2-150, N-cyclopropyl-4-{4-[(cyclopropylmethyl)amino]-7,8-dimethylimidazo[1,2-a]quinoxalin-1-yl}benzamide], the half-maximal inhibitory concentration (IC50) was determined as 0.00264 µM.
Regarding `CC(C)CNc1nc2ccccc2n2c(-c3ccc(C(=O)NC4CC4F)cc3)cnc12` (stereo not shown) [Example 3-21, N-(2-fluorocyclopropyl)-4-{4-[(2-methylpropyl)amino]imidazo[1,2-a]quinoxalin-1-yl}benzamide], the half-maximal inhibitory concentration (IC50) is 0.00775 µM.
As for `NC(=O)CCNc1nc2cc(F)c(F)cc2n2c(-c3ccc(C(=O)NC4CC4)c(Cl)c3)cnc12` [Example 2-138, 4-{4-[(3-amino-3-oxopropyl)amino]-7,8-difluoroimidazo[1,2-a]quinoxalin-1-yl}-2-chloro-N-cyclopropylbenzamide], the IC50 is 11.2 µM.
On to `CC(C)CNc1nc2ccccc2n2c(-c3ccc(C(=O)NCCc4ccncc4)cc3)cnc12` [Example 3-16, 4-{4-[(2-methylpropyl)amino]imidazo[1,2-a]quinoxalin-1-yl}-N-[2-(pyridin-4-yl)ethyl]benzamide], for which the IC50 turned out to be 5.87 µM.
For `O=C(NC1CC1)c1ccc(-c2cnc3c(NCCCCO)nc4ccc(F)cc4n23)cc1` [Example 2-47, N-cyclopropyl-4-{8-fluoro-4-[(4-hydroxybutyl)amino]imidazo[1,2-a]quinoxalin-1-yl}benzamide], the IC50 was 0.0664 µM.
Consider `O=C(NC1CC1)c1ccc(-c2cnc3c(NCc4ccccn4)nc4ccc(F)cc4n23)cc1` [Example 2-53, N-cyclopropyl-4-{8-fluoro-4-[(pyridin-2-ylmethyl)amino]imidazo[1,2-a]quinoxalin-1-yl}benzamide], for which the IC50 stood at 1.05 µM.
`N#Cc1ccc2c(c1)nc(NCCCO)c1ncc(-c3ccc(C(=O)NC4CC4)cc3)n12` [Example 2-211, 4-{7-cyano-4-[(3-hydroxypropyl)amino]imidazo[1,2-a]quinoxalin-1-yl}-N-cyclopropylbenzamide]: the concentration for half-maximal inhibition (IC50) was found to be 0.0329 µM.
As for `CC(C)CNc1nc2ccccc2n2c(-c3ccc(C(=O)NC4CC4)cc3)cnc12` [Example 1-2, N-cyclopropyl-4-(4-isobutylamino-imidazo[1,2-a]quinoxalin-1-yl)-benzamide], the figure is 0.0124 µM; as for `CC(C)CNc1nc2ccccc2n2c(-c3ccccc3F)cnc12` [Example 1-26, 1-(2-fluorophenyl)-N-(2-methylpropyl)imidazo[1,2-a]quinoxalin-4-amine], 9.14 µM; as for `NC(=O)CCNc1nc2ccc(F)cc2n2c(-c3ccc(C(=O)NC4CC4)cc3)cnc12` [Example 2-56, 4-{4-[(3-amino-3-oxopropyl)amino]-8-fluoroimidazo[1,2-a]quinoxalin-1-yl}-N-cyclopropylbenzamide], 0.378 µM.
Regarding `CC(C)CNc1nc2ccccc2n2c(-c3ccsc3)cnc12` [Example 1-22, N-(2-methylpropyl)-1-(thiophen-3-yl)imidazo[1,2-a]quinoxalin-4-amine], the IC50 was 5.14 µM.
Regarding `CC(=O)Nc1cccc(NC(=O)c2ccc(-c3cnc4c(NCC(C)C)nc5ccccc5n34)cc2)c1` [Example 3-14, N-[3-(acetylamino)phenyl]-4-{4-[(2-methylpropyl)amino]imidazo[1,2-a]quinoxalin-1-yl}benzamide], the IC50 was 0.624 µM.
Regarding `CCCCNc1nc2cc(C)c(C)cc2n2c(-c3ccc(C(=O)NC4CC4)cc3)cnc12` [Example 2-149, 4-[4-(butylamino)-7,8-dimethylimidazo[1,2-a]quinoxalin-1-yl]-N-cyclopropylbenzamide], the IC50 is 0.00286 µM.
As to `CC(C)CNc1nc2ccccc2n2c(-c3ccc(O)cc3)cnc12` [Example 1-37, 4-{4-[(2-methylpropyl)amino]imidazo[1,2-a]quinoxalin-1-yl}phenol], the IC50 stood at 0.301 µM.
Regarding `COc1ccc(-c2cnc3c(NCC(C)C)nc4ccccc4n23)cc1OC` [Example 1-25, 1-(3,4-dimethoxyphenyl)-N-(2-methylpropyl)imidazo[1,2-a]quinoxalin-4-amine], the IC50 was 13.6 µM.
Regarding `CC(C)CNc1nc2ccccc2n2c(-c3ccc(C(=O)NCCN4CCNC4=O)cc3)cnc12` [Example 3-18, 4-{4-[(2-methylpropyl)amino]imidazo[1,2-a]quinoxalin-1-yl}-N-[2-(2-oxoimidazolidin-1-yl)ethyl]benzamide], the IC50 was 11.9 µM.
As to `CC(=O)NCCNc1nc2cc(F)c(F)cc2n2c(-c3ccc(C(=O)NC4CC4)cc3)cnc12` [Example 2-102, 4-(4-{[2-(acetylamino)ethyl]amino}-7,8-difluoroimidazo[1,2-a]quinoxalin-1-yl)-N-cyclopropylbenzamide], the IC50 amounted to 0.584 µM.
In the case of `CNC(=O)c1ccc(-c2cnc3c(NCC(C)C)nc4ccccc4n23)cc1Cl` [Example 1-46, 2-chloro-N-methyl-4-{4-[(2-methylpropyl)amino]imidazo[1,2-a]quinoxalin-1-yl}benzamide], the IC50 came out at 2.42 µM.

Source of the values: patent US8729082B2, “Substituted imidazoquinoxalines” (Bayer Intellectual Property GmbH, priority 2009, dated 2014).
